Laboratory results from patent US20150025118A1, “ACTIVE COMPOUND COMPOSITIONS FOR VECTOR CONTROL OF INSECTICIDE-RESISTANT PESTS” (priority 2012, published 2015).

How the values were obtained:
[1] = tested on: Anopheles gambiae (target-site-resistant and metabolic-resistant strain: RSPH); test: Target-site-resistant and metabolic-resistant Anopheles test: treated glazed tile, knock-down; type: in vivo
Procedure: (§1) The exposition time is 30 minutes.
(§2) 0.25 hours, 0.5 hours, 1 hour, 2 hour, 3 hour, 4 hour and 24 hours after contact to the treated surface, the knock-down proportion of the test animals in % is determined. Here, 100% means that all mosquitoes have been killed; 0% means that none of the mosquitoes has been killed.

[2] = tested on: Anopheles funestus metabolic-resistant strain FUMOZ-R; test: Metabolic-resistant Anopheles test: treated glazed tile, knock-down; type: in vivo
Procedure: as §1, §2

mosquitoes = conditions: alone, on concrete (alkaline); stated as known; cited from earlier work
Aedes aegypti = test: Aedes test: contact on treated glazed tile, knock-down; type: in vivo
Procedure: To produce a suitable preparation of active compound combination the active compounds bendiocarb and clothianidin were dissolved in acetone (for the control group only one active compound was dissolved in acetone). The active compound combination preparation (and the active compound preparations) were pipetted onto a glazed tile and, after drying, adult mosquitoes of the species Aedes aegypti are placed onto the treated tile. The exposition time is 30 minutes.
as §2

[3] = Bendiocarb 0.032 mg/m^2 alone, 0.25 h after contact
[4] = Bendiocarb 0.032 mg/m^2 alone, 0.5 h after contact
[5] = Bendiocarb 0.032 mg/m^2 alone, 1 h after contact
[6] = Bendiocarb 0.032 mg/m^2 alone, 2 h after contact
[7] = Bendiocarb 0.032 mg/m^2 alone, 3 h after contact
[8] = Bendiocarb 0.032 mg/m^2 alone, 4 h after contact
[9] = Bendiocarb 0.032 mg/m^2 alone, 24 h after contact
[10] = Bendiocarb 0.16 mg/m^2 alone, 0.25 h after contact
[11] = Bendiocarb 0.16 mg/m^2 alone, 0.5 h after contact
[12] = Bendiocarb 0.16 mg/m^2 alone, 1 h after contact
[13] = Bendiocarb 0.16 mg/m^2 alone, 2 h after contact
[14] = Bendiocarb 0.16 mg/m^2 alone, 3 h after contact
[15] = Bendiocarb 0.16 mg/m^2 alone, 4 h after contact
[16] = Bendiocarb 0.16 mg/m^2 alone, 24 h after contact

CNC(=O)Oc1cccc2c1OC(C)(C)O2 [Bendiocarb, bendiocarb]
Effect % (knock-down) ([1]; Bendiocarb 0.032 mg/m^2 alone (Table 2), 0.25 h after contact): 5%
Effect % (knock-down) ([1]; Bendiocarb 0.032 mg/m^2 alone (Table 2), 0.5 h after contact): 5%
Effect % (knock-down) ([1]; Bendiocarb 0.032 mg/m^2 alone (Table 2), 1 h after contact): 15%
Effect % (knock-down) ([1]; Bendiocarb 0.032 mg/m^2 alone (Table 2), 2 h after contact): 10%
Effect % (knock-down) ([1]; Bendiocarb 0.032 mg/m^2 alone (Table 2), 3 h after contact): 10%
Effect % (knock-down) ([1]; Bendiocarb 0.032 mg/m^2 alone (Table 2), 4 h after contact): 15%
Effect % (knock-down) ([1]; Bendiocarb 0.032 mg/m^2 alone (Table 2), 24 h after contact): 35%
Effect % (knock-down) ([1]; Bendiocarb 0.032 mg/m^2 alone (Table 3), 0.25 h after contact): 10%
Effect % (knock-down) ([1]; Bendiocarb 0.032 mg/m^2 alone (Table 3), 0.5 h after contact): 25%
Effect % (knock-down) ([1]; Bendiocarb 0.032 mg/m^2 alone (Table 3), 1 h after contact): 25%
Effect % (knock-down) ([1]; Bendiocarb 0.032 mg/m^2 alone (Table 3), 2 h after contact): 25%
Effect % (knock-down) ([1]; Bendiocarb 0.032 mg/m^2 alone (Table 3), 3 h after contact): 35%
Effect % (knock-down) ([1]; Bendiocarb 0.032 mg/m^2 alone (Table 3), 4 h after contact): 35%
Effect % (knock-down) ([1]; Bendiocarb 0.032 mg/m^2 alone (Table 3), 24 h after contact): 80%
Effect % (knock-down) ([1]; Bendiocarb 0.16 mg/m^2 alone (Table 2), 0.25 h after contact): 5%
Effect % (knock-down) ([1]; Bendiocarb 0.16 mg/m^2 alone (Table 2), 0.5 h after contact): 90%
Effect % (knock-down) ([1]; Bendiocarb 0.16 mg/m^2 alone (Table 2), 1 h after contact): 95%
Effect % (knock-down) ([1]; Bendiocarb 0.16 mg/m^2 alone (Table 2), 2 h after contact): 100%
Effect % (knock-down) ([1]; Bendiocarb 0.16 mg/m^2 alone (Table 2), 3 h after contact): 100%
Effect % (knock-down) ([1]; Bendiocarb 0.16 mg/m^2 alone (Table 2), 4 h after contact): 90%
Effect % (knock-down) ([1]; Bendiocarb 0.16 mg/m^2 alone (Table 2), 24 h after contact): 90%
Effect % (knock-down) ([1]; Bendiocarb 0.16 mg/m^2 alone (Table 3), 0.25 h after contact): 15%
Effect % (knock-down) ([1]; Bendiocarb 0.16 mg/m^2 alone (Table 3), 0.5 h after contact): 100%
Effect % (knock-down) ([1]; Bendiocarb 0.16 mg/m^2 alone (Table 3), 1 h after contact): 100%
Effect % (knock-down) ([1]; Bendiocarb 0.16 mg/m^2 alone (Table 3), 2 h after contact): 100%
Effect % (knock-down) ([1]; Bendiocarb 0.16 mg/m^2 alone (Table 3), 3 h after contact): 100%
Effect % (knock-down) ([1]; Bendiocarb 0.16 mg/m^2 alone (Table 3), 4 h after contact): 100%
Effect % (knock-down) ([1]; Bendiocarb 0.16 mg/m^2 alone (Table 3), 24 h after contact): 100%
Effect % (knock-down) ([1]; Bendiocarb 0.8 mg/m^2 alone (Table 2), 0.25 h after contact): 95%
Effect % (knock-down) ([1]; Bendiocarb 0.8 mg/m^2 alone (Table 2), 0.5 h after contact): 100%
Effect % (knock-down) ([1]; Bendiocarb 0.8 mg/m^2 alone (Table 2), 1 h after contact): 100%
Effect % (knock-down) ([1]; Bendiocarb 0.8 mg/m^2 alone (Table 2), 2 h after contact): 100%
Effect % (knock-down) ([1]; Bendiocarb 0.8 mg/m^2 alone (Table 2), 3 h after contact): 100%
Effect % (knock-down) ([1]; Bendiocarb 0.8 mg/m^2 alone (Table 2), 4 h after contact): 100%
Effect % (knock-down) ([1]; Bendiocarb 0.8 mg/m^2 alone (Table 2), 24 h after contact): 100%
Effect % (knock-down) [2, 3]: 0%
Effect % (knock-down) [2, 4]: 5%
Effect % (knock-down) [2, 5]: 5%
Effect % (knock-down) [2, 6]: 5%
Effect % (knock-down) [2, 7]: 10%
Effect % (knock-down) [2, 8]: 10%
Effect % (knock-down) [2, 9]: 40%
Effect % (knock-down) [2, 10]: 0%
Effect % (knock-down) [2, 11]: 80%
Effect % (knock-down) [2, 12]: 80%
Effect % (knock-down) [2, 13]: 45%
Effect % (knock-down) [2, 14]: 50%
Effect % (knock-down) [2, 15]: 20%
Effect % (knock-down) [2, 16]: 90%
Effect % (knock-down) ([2]; Bendiocarb 0.8 mg/m^2 alone, 0.25 h after contact): 100%
Effect % (knock-down) ([2]; Bendiocarb 0.8 mg/m^2 alone, 0.5 h after contact): 100%
Effect % (knock-down) ([2]; Bendiocarb 0.8 mg/m^2 alone, 1 h after contact): 100%
Effect % (knock-down) ([2]; Bendiocarb 0.8 mg/m^2 alone, 2 h after contact): 100%
Effect % (knock-down) ([2]; Bendiocarb 0.8 mg/m^2 alone, 3 h after contact): 100%
Effect % (knock-down) ([2]; Bendiocarb 0.8 mg/m^2 alone, 4 h after contact): 95%
Effect % (knock-down) ([2]; Bendiocarb 0.8 mg/m^2 alone, 24 h after contact): 100%
efficiency on concrete (mosquitoes): not efficient
Effect % (knock-down) (Aedes aegypti; [3]): 0%
Effect % (knock-down) (Aedes aegypti; [4]): 0%
Effect % (knock-down) (Aedes aegypti; [5]): 0%
Effect % (knock-down) (Aedes aegypti; [6]): 0%
Effect % (knock-down) (Aedes aegypti; [7]): 0%
Effect % (knock-down) (Aedes aegypti; [8]): 5%
Effect % (knock-down) (Aedes aegypti; [9]): 0%
Effect % (knock-down) (Aedes aegypti; [10]): 0%
Effect % (knock-down) (Aedes aegypti; [11]): 5%
Effect % (knock-down) (Aedes aegypti; [12]): 5%
Effect % (knock-down) (Aedes aegypti; [13]): 5%
Effect % (knock-down) (Aedes aegypti; [14]): 10%
Effect % (knock-down) (Aedes aegypti; [15]): 10%
Effect % (knock-down) (Aedes aegypti; [16]): 5%
